{"source": "patent US12280052B2", "about": "“Compositions and methods for the treatment of adenomyosis and rectovaginal endometriosis” (ObsEva S.A., priority 2018, dated 2025)", "key": {"human GnRH receptor": {"target": "T1, human GnRH receptor (Homo sapiens, UniProt P30968)", "T1 sequence (P30968 1-328)": "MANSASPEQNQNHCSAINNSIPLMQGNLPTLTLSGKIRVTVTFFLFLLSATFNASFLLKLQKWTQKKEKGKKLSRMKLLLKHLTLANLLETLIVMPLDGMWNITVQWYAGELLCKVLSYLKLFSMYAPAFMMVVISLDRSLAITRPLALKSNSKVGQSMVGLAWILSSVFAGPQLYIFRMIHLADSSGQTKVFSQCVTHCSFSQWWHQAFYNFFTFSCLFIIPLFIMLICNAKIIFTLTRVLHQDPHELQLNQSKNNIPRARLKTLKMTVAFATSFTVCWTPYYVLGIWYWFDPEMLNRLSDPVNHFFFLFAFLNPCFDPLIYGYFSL", "experiment": "affinity for human GnRH receptor", "type": "binding", "settings": "kind of constant not stated"}, "[1]": {"system": "human female patients suffering from adenomyosis", "experiment": "open-label Phase II clinical trial of compound (VI) in adenomyosis, representative patient", "type": "in vivo", "settings": "for mB&B score: composite score 0-15, baseline 6.0 (Severe); for mB&B score / Change from baseline in EHP-30 score for control and powerlessness / Change from baseline in EHP-30 score for emotional well-being / Change from baseline in EHP-30 score for pain / Change from baseline in EHP-30 score for self-image / Change from baseline in EHP-30 score for social support / Change from baseline in global pelvic pain by NRS / Change from baseline in mB&B score / Change from baseline in uterine volume by MRI / Change from baseline in uterine volume by TVUS / Uterus height by TVUS / Uterus depth by TVUS / Uterus length by TVUS / mB&B score, severity class / EHP-30 Score: Pain (Questions 1-11 of EHP-30) / EHP-30 Score: Social Support (Questions 24-27 of EHP-30) / EHP-30 Score: Self-Image (Questions 28-30 of EHP-30) / EHP-30 Score: Emotional Well-being (Questions 18-23 of EHP-30) / EHP-30 Score: Control and Powerlessness (Questions 12-17 of EHP-30) / Global pelvic pain by numerical rating scale (NRS) / Patient Global Impression of Change since Baseline (PGIC) / Uterus volume by transvaginal ultrasound (TVUS) / Uterus volume by MRI: representative patient; for Uterus height by TVUS: baseline 5.6 cm; for Uterus depth by TVUS: baseline 6.5 cm; for Uterus length by TVUS: baseline 6.7 cm; for mB&B score, severity class: baseline Severe; for EHP-30 Score: Pain (Questions 1-11 of EHP-30): scale 0 (best) to 100 (worst health status), baseline 63.6; for EHP-30 Score: Social Support (Questions 24-27 of EHP-30) / EHP-30 Score: Self-Image (Questions 28-30 of EHP-30) / EHP-30 Score: Emotional Well-being (Questions 18-23 of EHP-30) / EHP-30 Score: Control and Powerlessness (Questions 12-17 of EHP-30): scale 0 (best) to 100 (worst); for EHP-30 Score: Social Support (Questions 24-27 of EHP-30): baseline 43.8; for EHP-30 Score: Self-Image (Questions 28-30 of EHP-30): baseline 50.0; for EHP-30 Score: Emotional Well-being (Questions 18-23 of EHP-30): baseline 66.7; for EHP-30 Score: Control and Powerlessness (Questions 12-17 of EHP-30): baseline 70.8; for Global pelvic pain by numerical rating scale (NRS): scale 0 (no pain) to 10 (worst pain imaginable), baseline 7; for Patient Global Impression of Change since Baseline (PGIC): scale 1 (Very much improved) to 7 (very much worse); for Uterus volume by transvaginal ultrasound (TVUS): volume = l × h × d × 0.523, baseline 128 cm^3; for Uterus volume by MRI: baseline 198", "from_the_text": "This example describes the results of an open-label, Phase II clinical trial examining the safety and efficacy of the GnRH antagonist, compound (VI) (3-[2-fluoro-5-(2,3-difluoro-6-methoxybenzyloxy)4-methoxyphenyl]-2,4-dioxo-1,2,3,4-tetrahydrothieno [3,4d]pyrimidine-5-carboxylic acid), for treating human female patients suffering from adenomyosis. The study began with a 4-week patient screening period, followed by two consecutive 12-week treatment periods. During the first 12-week treatment period, patients were administered compound (VI) in a single daily dose of 200 mg. During the second 12-week treatment period, patients were administered compound (VI) in a single daily dose of 100 mg. Patients then entered a post-treatment follow-up period during which the effects of compound (VI) were further assessed.\nThe total duration of this study (from the screening visit to the end-of-study visit) was 40 weeks per subject. The study began with a 4-week screening period evaluating the symptoms of uterine adenomyosis and assessing the volume of each patient's adenomyosis-affected uterus by way of MRI. During this period, the patients received no study drug.\nAt the start of menstruation, the patients were administered 200 mg of compound (VI), once daily, in the form of the corresponding choline salt. The administration continued over the course of a 12-weel treatment period, referred to as the “initiation phase,” so as to maximize the effect of the treatment. After the first 12-week treatment period, the therapeutic effect of the GnRH antagonist was maintained by administering 100 mg of compound (VI), once daily, over the course of a second 12-week treatment period. This second treatment period was referred to as the “maintenance phase.”\nAt the end of the maintenance phase (at week 24), the patients entered a 12-week follow-up period without any active treatment.\nThe primary efficacy endpoint of this study was a change, from baseline to week 24, in volume of the adenomyosis-affected uterus, as measured by MRI. Secondary endpoints under investigation in this study were as follows: • Change from baseline to weeks 12 and 36 in volume of the uterus with adenomyosis measured by MRI • Change from baseline to weeks 12, 24 and 36 in volume of the uterus with adenomyosis measured by TVUS • Change from baseline to weeks 12, 24 and 36 in the largest thickness of the anterior and posterior part of the uterus myometrium (sagittal assessment) • Change from baseline to weeks 12, 24 and 36 in the largest diameter of the junctional zone of the uterine adenomyosis measured by MRI • Presence of blood spots on the MRI images • Change from baseline to weeks 12, 24 and 36 in uterus volume assessed at vaginal examination • Change from baseline to weeks 12, 24 and 36 in uterine tenderness assessed at vaginal examination • Change from baseline to weeks 12, 24 and 36 in dysmenorrhea, pelvic pain and dyspareunia according to the mB&B scale • Change from baseline to weeks 4, 8, 12, 16, 20, 24 and 36 for global pelvic pain assessed over the preceding 4-week period using a Numerical Rating Scale (NRS) with a monthly recall • Change from baseline to weeks 4, 8, 12, 16, 20, 24, 28, 32 and 36 in the mean monthly dyspareunia score defined as the mean of available daily dyspareunia scores over the preceding 4-week period assessed on the Verbal Rating Scale (VRS) dyspareunia scale and on a NRS • Change from baseline to weeks 4, 8, 12, 16, 20 and 24 fin the mean monthly dyschezia score defined as the mean of weekly dyschezia scores over the preceding 4-week period using a NRS • No uterine bleeding (or spotting only), during the 4-week period preceding weeks 4, 8, 12, 16, 20 and 24 using a simplified bleeding scale • Time to amenorrhea • Change from baseline to weeks 12, 24 and 36 in the Endometriosis Health Profile questionnaire (EHP-30) • Patient Global Impression of Change (PGIC) score at weeks 12, 24 and 36 Data Analysis and Statistics […]"}, "[2]": {"settings": "week 24 (100 mg once daily after 12 weeks of 200 mg)"}}}
{"smiles": "COc1cc(F)c(-n2c(=O)[nH]c3csc(C(=O)O)c3c2=O)cc1OCc1c(OC)ccc(F)c1F", "note": "[Compound (VI), 3-[2-fluoro-5-(2,3-difluoro-6-methoxybenzyloxy)4-methoxyphenyl]-2,4-dioxo-1,2,3,4-tetrahydrothieno [3,4d]pyrimidine-5-carboxylic acid]", "values": [{"measurement": "affinity for human GnRH receptor", "setting": "human GnRH receptor", "value": 27.4, "unit": "nM"}, {"measurement": "uterine volume, conclusion in words", "setting": "[1]; 24 weeks of treatment, 200 mg then 100 mg once daily", "value": "sustained reduction in uterine volume"}, {"measurement": "adenomyosis-associated pain, conclusion in words", "setting": "[1]; 24 weeks of treatment, 200 mg then 100 mg once daily, various metrics", "value": "substantial reduction in adenomyosis-associated pain"}, {"measurement": "mB&B score", "setting": "[1]; week 12 (200 mg once daily)", "value": 2.0}, {"measurement": "Change from baseline in EHP-30 score for control and powerlessness", "setting": "[1]; week 12 (200 mg once daily)", "value": "−70.8"}, {"measurement": "Change from baseline in EHP-30 score for emotional well-being", "setting": "[1]; week 12 (200 mg once daily)", "value": "−66.7"}, {"measurement": "Change from baseline in EHP-30 score for pain", "setting": "[1]; week 12 (200 mg once daily)", "value": "−63.6"}, {"measurement": "Change from baseline in EHP-30 score for self-image", "setting": "[1]; week 12 (200 mg once daily)", "value": "−50.0"}, {"measurement": "Change from baseline in EHP-30 score for social support", "setting": "[1]; week 12 (200 mg once daily)", "value": "−43.8"}, {"measurement": "Change from baseline in global pelvic pain by NRS", "setting": "[1]; week 12 (200 mg once daily)", "value": "−7"}, {"measurement": "Change from baseline in mB&B score", "setting": "[1]; week 12 (200 mg once daily)", "value": "−4"}, {"measurement": "Change from baseline in uterine volume by MRI", "setting": "[1]; week 12 (200 mg once daily)", "value": "−114", "unit": "cm^3"}, {"measurement": "Change from baseline in uterine volume by TVUS", "setting": "[1]; week 12 (200 mg once daily)", "value": "−79", "unit": "cm^3"}, {"measurement": "Uterus height by TVUS", "setting": "[1]; week 12 (200 mg once daily)", "value": 4.1, "unit": "cm"}, {"measurement": "Uterus depth by TVUS", "setting": "[1]; week 12 (200 mg once daily)", "value": 5.0, "unit": "cm"}, {"measurement": "Uterus length by TVUS", "setting": "[1]; week 12 (200 mg once daily)", "value": 4.5, "unit": "cm"}, {"measurement": "mB&B score, severity class", "setting": "[1]; week 12 (200 mg once daily)", "value": "Mild (Mild (1-2))"}, {"measurement": "EHP-30 Score: Pain (Questions 1-11 of EHP-30)", "setting": "[1]; week 12 (200 mg once daily)", "value": 0.0}, {"measurement": "EHP-30 Score: Social Support (Questions 24-27 of EHP-30)", "setting": "[1]; week 12 (200 mg once daily)", "value": 0}, {"measurement": "EHP-30 Score: Self-Image (Questions 28-30 of EHP-30)", "setting": "[1]; week 12 (200 mg once daily)", "value": 0}, {"measurement": "EHP-30 Score: Emotional Well-being (Questions 18-23 of EHP-30)", "setting": "[1]; week 12 (200 mg once daily)", "value": 0}, {"measurement": "EHP-30 Score: Control and Powerlessness (Questions 12-17 of EHP-30)", "setting": "[1]; week 12 (200 mg once daily)", "value": 0}, {"measurement": "Global pelvic pain by numerical rating scale (NRS)", "setting": "[1]; week 12 (200 mg once daily)", "value": 0}, {"measurement": "Patient Global Impression of Change since Baseline (PGIC)", "setting": "[1]; week 12 (200 mg once daily)", "value": "1—Very"}, {"measurement": "Uterus volume by transvaginal ultrasound (TVUS)", "setting": "[1]; week 12 (200 mg once daily)", "value": 48, "unit": "cm^3"}, {"measurement": "Uterus volume by MRI", "setting": "[1]; week 12 (end of initiation phase, 200 mg once daily as choline salt)", "value": 84, "unit": "cm^3"}, {"measurement": "mB&B score", "setting": "[1]; [2]", "value": 2.0}, {"measurement": "Change from baseline in EHP-30 score for control and powerlessness", "setting": "[1]; [2]", "value": "−70.8"}, {"measurement": "Change from baseline in EHP-30 score for emotional well-being", "setting": "[1]; [2]", "value": "−66.7"}, {"measurement": "Change from baseline in EHP-30 score for pain", "setting": "[1]; [2]", "value": "−56.8"}, {"measurement": "Change from baseline in EHP-30 score for self-image", "setting": "[1]; [2]", "value": "−50.0"}, {"measurement": "Change from baseline in EHP-30 score for social support", "setting": "[1]; [2]", "value": "−43.8"}, {"measurement": "Change from baseline in global pelvic pain by NRS", "setting": "[1]; [2]", "value": "−6"}, {"measurement": "Change from baseline in mB&B score", "setting": "[1]; [2]", "value": "−4"}, {"measurement": "Change from baseline in uterine volume by MRI", "setting": "[1]; [2]", "value": "−123", "unit": "cm^3"}, {"measurement": "Change from baseline in uterine volume by TVUS", "setting": "[1]; [2]", "value": "−79", "unit": "cm^3"}, {"measurement": "Uterus height by TVUS", "setting": "[1]; [2]", "value": 4.0, "unit": "cm"}, {"measurement": "Uterus depth by TVUS", "setting": "[1]; [2]", "value": 5.0, "unit": "cm"}, {"measurement": "Uterus length by TVUS", "setting": "[1]; [2]", "value": 4.6, "unit": "cm"}, {"measurement": "mB&B score, severity class", "setting": "[1]; [2]", "value": "Mild (Mild (1-2))"}, {"measurement": "EHP-30 Score: Pain (Questions 1-11 of EHP-30)", "setting": "[1]; [2]", "value": 6.8}, {"measurement": "EHP-30 Score: Social Support (Questions 24-27 of EHP-30)", "setting": "[1]; [2]", "value": 0}, {"measurement": "EHP-30 Score: Self-Image (Questions 28-30 of EHP-30)", "setting": "[1]; [2]", "value": 0}, {"measurement": "EHP-30 Score: Emotional Well-being (Questions 18-23 of EHP-30)", "setting": "[1]; [2]", "value": 0}, {"measurement": "EHP-30 Score: Control and Powerlessness (Questions 12-17 of EHP-30)", "setting": "[1]; [2]", "value": 0}, {"measurement": "Global pelvic pain by numerical rating scale (NRS)", "setting": "[1]; [2]", "value": 1}, {"measurement": "Patient Global Impression of Change since Baseline (PGIC)", "setting": "[1]; [2]", "value": "1—Very"}, {"measurement": "Uterus volume by transvaginal ultrasound (TVUS)", "setting": "[1]; [2]", "value": 48, "unit": "cm^3"}, {"measurement": "Uterus volume by MRI", "setting": "[1]; week 24 (end of maintenance phase, 100 mg once daily after 12 weeks of 200 mg)", "value": 75, "unit": "cm^3"}]}
